The values that follow come from US10538555B2, “Macrocyclic inhibitors of the PD-1/PD-L1 and CD80(B7-1)/PD-L1 protein/protein interactions” (BRISTOL-MYERS SQUIBB COMPANY, priority 2014, dated 2020).

The structures appear in SMILES notation. Where a SMILES comes first, the peptide text is derived from it. Bridges are numbered along the chain shown (N, C = ends). [ ]: non-standard residue; d: D form. ξ: configuration not given here. Trp(1-CH2COOH) = N[C@@H](Cc1cn(CC(=O)O)c2ccccc12)C(=O)O; Phe(3,4,5-F3) = N[C@@H](Cc1cc(F)c(F)c(F)c1)C(=O)O; Phe(3,4-F2) = N[C@@H](Cc1ccc(F)c(F)c1)C(=O)O; NMePhe(4-Me) = CN[C@@H](Cc1ccc(C)cc1)C(=O)O; NMePhe(4-F) = CN[C@@H](Cc1ccc(F)cc1)C(=O)O; ξTrp(7-aza) = NC(Cc1c[nH]c2ncccc12)C(=O)O; Phe(4-F) = N[C@@H](Cc1ccc(F)cc1)C(=O)O; d(cisHyp) = O=C(O)[C@H]1C[C@@H](O)CN1; Hyp = O=C(O)[C@@H]1C[C@@H](O)CN1; NMeF = CN[C@@H](Cc1ccccc1)C(=O)O; dNMeF = CN[C@H](Cc1ccccc1)C(=O)O; dHyp = O=C(O)[C@H]1C[C@H](O)CN1; Cha = N[C@@H](CC1CCCCC1)C(=O)O; NMeNle = CCCC[C@H](NC)C(=O)O; dPip = O=C(O)[C@H]1CCCCN1; hSer = N[C@@H](CCO)C(=O)O; NMeA = CN[C@@H](C)C(=O)O; Orn = NCCC[C@H](N)C(=O)O; dThz = O=C(O)[C@H]1CSCN1; Dab = NCC[C@H](N)C(=O)O; Dap = NC[C@H](N)C(=O)O; ξC = NC(CS)C(=O)O; Sar = CNCC(=O)O

T1 sequence (Q9NZQ7 with tags, fused parts or gaps): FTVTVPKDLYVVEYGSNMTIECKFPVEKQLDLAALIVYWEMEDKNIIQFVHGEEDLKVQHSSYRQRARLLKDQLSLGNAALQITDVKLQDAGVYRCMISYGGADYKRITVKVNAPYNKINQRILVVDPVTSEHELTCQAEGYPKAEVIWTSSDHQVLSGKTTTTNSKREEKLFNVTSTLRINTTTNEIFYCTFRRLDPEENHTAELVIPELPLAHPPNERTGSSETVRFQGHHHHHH

One assay addresses T1, Human PD-L1/PD-1 (Homo sapiens, UniProt Q9NZQ7).
T1 construct: TVMV protease cleavage site (C); made in house; host or cells: HEK293T cells
Nature of the assay: HTRF Human PD-L1/PD-1 binding assay (PD-1-Ig/PD-L1-His). The settings on record: PD-L1-His 10 nM, PD-1-Ig 20 nM; class symbol; read-out: HTRF Human PD-L1/PD-1 Binding Assay IC50 Range. Put shortly: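 Soluble HEK293T-expressed proteins: hPD-L1-His 10 nM, hPD-1-Ig 20 nM final. Cpd + PD-L1 15 min, + PD-1 15 min, + Eu anti-Ig 1 nM/APC anti-His 20 nM 30 min. Buffer dPBS, 0.1% BSA, 0.05% Tween-20. TR-FRET 665/620.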
A general note: In TR-FRET formats the signal depends on donor and acceptor labels being close together.
For `CCCC[C@H]1C(=O)N(C)[C@@H](CCCC)C(=O)N[C@@H](CCCN)C(=O)N[C@H](C(=O)NCC(N)=O)CSCC(=O)N[C@@H](Cc2ccc(OC)cc2)C(=O)N(C)[C@@H](C)C(=O)N[C@@H](CCN)C(=O)N2CCC[C@H]2C(=O)N[C@@H](Cc2cnc[nH]2)C(=O)N[C@@H](CCC(=O)O)C(=O)N2C[C@H](O)C[C@H]2C(=O)N[C@@H](Cc2c[nH]c3ccccc23)C(=O)N[C@@H](CC(=O)O)C(=O)N[C@@H](Cc2c[nH]c3ccccc23)C(=O)N1C` [Example 7104] ({CH2CO}-Y(Me)[NMeA][Dab]PHE[Hyp]WDW[NMeNle][NMeNle][Orn]CG-NH2; thioether N-14), the IC50 lay in the range of 10 to 99.9 nM.

On to `CCCC[C@H]1C(=O)N2CCC[C@@H]2C(=O)N[C@@H](CC(=O)O)C(=O)N[C@@H](C(C)C)C(=O)N(C)[C@@H](Cc2ccc(C)cc2)C(=O)N[C@@H](CCCN)C(=O)N2CCC[C@@H]2C(=O)N[C@@H](Cc2c[nH]c3ccccc23)C(=O)N[C@@H](Cc2ccc(O)cc2)C(=O)N[C@@H](CC(C)C)C(=O)N[C@H](C(=O)NCC(N)=O)CSCC(=O)N[C@@H](Cc2ccc(F)cc2)C(=O)N(C)[C@@H](Cc2ccccc2)C(=O)N1C` [Example 10112] ({CH2CO}-[Phe(4-F)][NMeF][NMeNle][dP]DV[NMePhe(4-Me)][Orn][dP]WYLCG-NH2; thioether N-13), for which the IC50 is 100 to 990 nM.

For `CCCC[C@H]1C(=O)N2CCC[C@@H]2C(=O)N[C@@H](CC(=O)O)C(=O)N[C@@H](C(C)C)C(=O)N(C)[C@@H](Cc2ccccc2)C(=O)N[C@@H](CCC(=O)O)C(=O)N2CCCC[C@@H]2C(=O)N[C@@H](Cc2c[nH]c3ccccc23)C(=O)N[C@@H](Cc2ccc(O)cc2)C(=O)N[C@@H](CN)C(=O)N[C@H](C(=O)NCC(N)=O)CSCC(=O)N[C@@H](Cc2cc(F)c(F)c(F)c2)C(=O)N(C)[C@@H](Cc2ccc(F)cc2)C(=O)N1C` [Example 10569] ({CH2CO}-[Phe(3,4,5-F3)][NMePhe(4-F)][NMeNle][dP]DV[NMeF]E[dPip]WY[Dap]CG-NH2; thioether N-13), the IC50 was in the range of 1 to 9.9 nM.

As to `CCCC[C@H]1C(=O)N(C)[C@@H](CCCC)C(=O)N[C@@H](CCC(=O)O)C(=O)N[C@H](C(=O)NCC(N)=O)CSCC(=O)N[C@@H](Cc2ccc(O)cc2)C(=O)N(C)[C@@H](C)C(=O)N[C@@H](CC(=O)O)C(=O)N2CCC[C@H]2C(=O)N[C@@H](CN)C(=O)N[C@@H](CC(C)C)C(=O)N2C[C@H](O)C[C@H]2C(=O)N[C@@H](Cc2c[nH]c3ccccc23)C(=O)N[C@@H](CO)C(=O)N[C@@H](Cc2c[nH]c3ccccc23)C(=O)N1C` [Example 5164] ({CH2CO}-Y[NMeA]DP[Dap]L[Hyp]WSW[NMeNle][NMeNle]ECG-NH2; thioether N-14), the IC50 fell in the range of 1 to 9.9 nM.

Regarding `CCCC[C@H]1C(=O)N2C[C@@H](O)C[C@@H]2C(=O)N[C@@H](CC(=O)O)C(=O)N[C@@H](C(C)C)C(=O)N(C)[C@@H](Cc2ccccc2)C(=O)N[C@@H](CCC(=O)O)C(=O)N2CCCC[C@@H]2C(=O)N[C@@H](Cc2c[nH]c3ccccc23)C(=O)N[C@@H](Cc2ccc(O)cc2)C(=O)N[C@@H](CN)C(=O)N[C@H](C(=O)NCC(N)=O)CSCC(=O)N[C@@H](Cc2cc(F)c(F)c(F)c2)C(=O)N(C)[C@@H](Cc2ccc(F)cc2)C(=O)N1C` [Example 10567] ({CH2CO}-[Phe(3,4,5-F3)][NMePhe(4-F)][NMeNle][dHyp]DV[NMeF]E[dPip]WY[Dap]CG-NH2; thioether N-13), the IC50 was in the range of 1 to 9.9 nM.

Take `CCCC[C@H]1C(=O)N(C)CC(=O)N[C@@H](CC(=O)O)C(=O)N[C@@H]([C@@H](C)O)C(=O)N(C)[C@@H](Cc2ccccc2)C(=O)N[C@@H](Cc2ccc(O)cc2)C(=O)N(C)CC(=O)N[C@@H](Cc2c[nH]c3ccccc23)C(=O)N[C@@H](Cc2ccc(O)cc2)C(=O)N[C@@H](CC(C)C)C(=O)N[C@H](C(=O)NCC(N)=O)CSCC(=O)N[C@@H](Cc2ccccc2)C(=O)N(C)[C@@H](Cc2ccccc2)C(=O)N1C` [Example 3225] ({CH2CO}-F[NMeF][NMeNle][Sar]DT[NMeF]Y[Sar]WYLCG-NH2; thioether N-13): the IC50 was 1 to 9.9 nM.

Turning to `CCCC[C@H]1C(=O)N(C)[C@@H](CCCC)C(=O)N[C@@H](CCCN)C(=O)N[C@H](C(=O)NCC(N)=O)CSCC(=O)N[C@@H](Cc2ccc(OC)cc2)C(=O)N(C)[C@@H](C)C(=O)N[C@@H](CC(=O)O)C(=O)N2CCC[C@H]2C(=O)N[C@@H](Cc2cnc[nH]2)C(=O)N[C@@H](CCCCN)C(=O)N2C[C@H](O)C[C@H]2C(=O)N[C@@H](Cc2c[nH]c3ccccc23)C(=O)N[C@@H](CCN)C(=O)N[C@@H](Cc2c[nH]c3ccccc23)C(=O)N1C` [Example 7094] ({CH2CO}-Y(Me)[NMeA]DPHK[Hyp]W[Dab]W[NMeNle][NMeNle][Orn]CG-NH2; thioether N-14), the IC50 lay in the range of 1 to 9.9 nM.

Turning to `CCCC[C@H]1C(=O)N(C)[C@@H](CCCC)C(=O)N[C@@H](CCCNC(=N)N)C(=O)N[C@H](C(=O)NCC(N)=O)CSCC(=O)N[C@@H](Cc2ccc(OC)cc2)C(=O)N(C)[C@@H](C)C(=O)N[C@@H](CC(N)=O)C(=O)N2CCC[C@H]2C(=O)N[C@@H](Cc2cnc[nH]2)C(=O)N[C@@H](CCC(=O)O)C(=O)N2C[C@H](O)C[C@H]2C(=O)N[C@@H](Cc2c[nH]c3ccccc23)C(=O)N[C@@H](CO)C(=O)N[C@@H](Cc2c[nH]c3ccccc23)C(=O)N1C` [Example 7086] ({CH2CO}-Y(Me)[NMeA]NPHE[Hyp]WSW[NMeNle][NMeNle]RCG-NH2; thioether N-14), the IC50 was 1 to 9.9 nM.

On to `CCCC[C@H]1C(=O)N(C)CC(=O)N[C@@H](CC(=O)O)C(=O)N[C@@H](C(C)C)C(=O)N(C)[C@@H](Cc2ccccc2)C(=O)N[C@@H](Cc2ccc(O)cc2)C(=O)N(C)CC(=O)NC(Cc2c[nH]c3ncccc23)C(=O)N[C@@H](Cc2ccc(O)cc2)C(=O)N[C@@H](CC(C)C)C(=O)N[C@H](C(=O)NCC(N)=O)CSCC(=O)N[C@@H](CC2CCCCC2)C(=O)N(C)[C@@H](Cc2ccccc2)C(=O)N1C` (stereo partly drawn) [Example 3240] ({CH2CO}-[Cha][NMeF][NMeNle][Sar]DV[NMeF]Y[Sar][ξTrp(7-aza)]YLCG-NH2; thioether N-13), for which the IC50 is 100 to 990 nM.

With `CCCC[C@H]1C(=O)N(C)[C@@H](CCCC)C(=O)N[C@@H](CCC(=O)O)C(=O)N[C@H](C(=O)NCC(N)=O)CSCC(=O)N[C@@H](Cc2ccc(O)cc2)C(=O)N(C)[C@@H](C)C(=O)N[C@@H](CC(N)=O)C(=O)N2CCC[C@H]2C(=O)N[C@@H](Cc2c[nH]cn2)C(=O)N[C@@H](CCC(=O)O)C(=O)N2C[C@H](O)C[C@H]2C(=O)N[C@@H](Cc2c[nH]c3ccccc23)C(=O)N[C@@H](CO)C(=O)N[C@@H](Cc2c[nH]c3ccccc23)C(=O)N1C` [Example 5150] ({CH2CO}-Y[NMeA]NPHE[Hyp]WSW[NMeNle][NMeNle]ECG-NH2; thioether N-14), the IC50 is 1 to 9.9 nM.

For `CCCC[C@H]1C(=O)N(C)[C@@H](CCCC)C(=O)N[C@@H](CCCN)C(=O)N[C@H](C(=O)NCC(N)=O)CSCC(=O)N[C@@H](Cc2ccc(O)cc2)C(=O)N2CCOCC2C(=O)N[C@@H](CC(N)=O)C(=O)N2CCC[C@H]2C(=O)N[C@@H](Cc2c[nH]cn2)C(=O)N[C@@H](CC(C)C)C(=O)N2C[C@H](O)C[C@H]2C(=O)N[C@@H](Cc2c[nH]c3ccccc23)C(=O)N[C@@H](CO)C(=O)N[C@@H](Cc2c[nH]c3ccccc23)C(=O)N1C` (stereo partly drawn) [Example 1532], the IC50 lay within 1 to 9.9 nM.

Consider `CCCC[C@H]1C(=O)N(C)[C@@H](CCCC)C(=O)N[C@@H](CCC(=O)O)C(=O)NC(C(=O)NCC(N)=O)CSCC(=O)N[C@@H](Cc2ccc(O)cc2)C(=O)N(C)[C@@H](C)C(=O)N[C@@H](CC(N)=O)C(=O)N2CCC[C@H]2C(=O)N[C@@H](Cc2c[nH]cn2)C(=O)N[C@@H](CC(N)=O)C(=O)N2CCC[C@H]2C(=O)N[C@@H](Cc2c[nH]c3ccccc23)C(=O)N[C@@H](CCO)C(=O)N[C@@H](Cc2c[nH]c3ccccc23)C(=O)N1C` (stereo partly drawn) [Example 9186] ({CH2CO}-Y[NMeA]NPHNPW[hSer]W[NMeNle][NMeNle]E[ξC]G-NH2; thioether N-14), for which the IC50 lay in the range of 10 to 99.9 nM.

With `CCCC[C@H]1C(=O)N2C[C@H](O)C[C@@H]2C(=O)N[C@@H](CC(=O)O)C(=O)N[C@@H](C(C)C)C(=O)N(C)[C@H](Cc2ccccc2)C(=O)N[C@@H](CCC(N)=O)C(=O)N2C[C@H](O)C[C@@H]2C(=O)N[C@@H](Cc2c[nH]c3ccccc23)C(=O)N[C@@H](Cc2ccc(O)cc2)C(=O)N[C@@H](CCCN)C(=O)N[C@H](C(=O)NCC(N)=O)CSCC(=O)N[C@@H](Cc2ccc(F)c(F)c2)C(=O)N(C)[C@@H](Cc2ccccc2)C(=O)N1C` [Example 9303] ({CH2CO}-[Phe(3,4-F2)][NMeF][NMeNle][d(cisHyp)]DV[dNMeF]Q[d(cisHyp)]WY[Orn]CG-NH2; thioether N-13), the IC50 lay within 1 to 9.9 nM.

`CCCC[C@H]1C(=O)N(C)[C@@H](CCCC)C(=O)N[C@@H](CCCNC(=N)N)C(=O)N[C@H](C(=O)NCC(N)=O)CSCC(=O)N[C@@H](Cc2ccc(O)cc2)C(=O)N(C)[C@@H](C)C(=O)N[C@@H](CC(N)=O)C(=O)N2CCC[C@H]2C(=O)N[C@@H](Cc2cnc[nH]2)C(=O)N[C@@H](CCCCN)C(=O)N2C[C@H](O)C[C@H]2C(=O)N[C@@H](Cc2c[nH]c3ccccc23)C(=O)N[C@@H](CO)C(=O)N[C@@H](Cc2cn(CC(=O)O)c3ccccc23)C(=O)N1C` [Example 6338] ({CH2CO}-Y[NMeA]NPHK[Hyp]WS[Trp(1-CH2COOH)][NMeNle][NMeNle]RCG-NH2; thioether N-14): the IC50 was 10 to 99.9 nM.

The same assay, now with this note: PD-L1-His 10 nM, PD-1-Ig 20 nM; read-out: HTRF Human PD-L1/PD-1 Binding Assay IC50.
For the molecule `CCCC[C@H]1C(=O)N2CCC[C@@H]2C(=O)N[C@@H](CC(=O)O)C(=O)N[C@@H](C(C)C)C(=O)N(C)[C@@H](Cc2ccccc2)C(=O)N[C@@H](CC(=O)O)C(=O)N2CSC[C@@H]2C(=O)N[C@@H](Cc2c[nH]c3ccccc23)C(=O)N[C@@H](Cc2ccc(O)cc2)C(=O)N[C@@H](CC(C)C)C(=O)N[C@H](C(=O)NCC(N)=O)CSCC(=O)N[C@@H](Cc2cc(F)c(F)c(F)c2)C(=O)N(C)[C@@H](Cc2ccccc2)C(=O)N1C` [Example 10091] ({CH2CO}-[Phe(3,4,5-F3)][NMeF][NMeNle][dP]DV[NMeF]D[dThz]WYLCG-NH2; thioether N-13), the IC50 worked out at 2.5 nM.
